Proliferative capacity and neurite network data for two substances are collected here from article PMC9732821, “Neurotrophic Activity and Its Modulation by Zinc Ion of a Dimeric Peptide Mimicking the Brain-Derived Neurotrophic Factor N-Terminal Region” (ACS Chemical Neuroscience, 2022).

The subject of one experiment is undifferentiated cells. As to conditions: cited from earlier work. From the text: Previous functional studies agree in identifying the N-terminal region as a pivotal NT domain for the binding selectivity and activation of Trks.[25]−[27] However, most of these information were obtained from the NGF-TrkA system.[28],[29] On the other hand, the BDNF N-terminal region has been less investigated. […] Mo ...

In a further experiment the test system is SH-SY5Y cells. Kind of experiment: neurite outgrowth of differentiated SH-SY5Y cells. The format is cell-based, human. To be noted: 3 days after 5 days retinoic acid. The method, then:
Figure 3 Neurite outgrowth stimulated by BDNF and its mimetic peptide ligands. (A) Top, left: schematic timeline of the experiment. SH-SY5Y cells were differentiated for 5 days (d1–5) by addition of retinoic acid (RA, gray bar) in the cell medium. Then, cells were stimulated for 3 days (d6–8) with 150 ng/mL BDNF or different concentrations of its peptide-mimetics (black bar) or left untreated (white bar). On the right and bottom, representative images of the differentiated cells at the end of each treatment. Scale bar 50 μm. (B) Scatter dot plot of the total neurite length, normalized to the number of cell bodies present in each analyzed field. […] For each field, an average of 50–200 cells were counted. […] (C) Representative fluorescence images of DIV3 Ren cells stained with DAPI (blue) and β3-tubulin (green) after differentiation with the standard medium (CTRL), or with the standard medium supplemented with 50 ng/mL BDNF or with 1 μM d-bdnf. […] (D) Column plot of the mean ± SD fraction of β3-tubulin (green) positive on the total cells, counted in the DAPI channel of the analyzed fields (nfields) (CTRL: nfields = 10 and total ncells = 4756; BDNF: nfields = 11 and total ncells = 4330; d-bdnf: nfields = 10 and total ncells = 5619 cells; ****p < 0.0001, *p < 0.05 according to the one-way ANOVA with Dunnett’s multiple comparison test). […]

Take “HSDPARRGELSV-NH2 [m-bdnf, linear peptide fragment encompassing the first 12 amino acids of the mature NT N-terminal]”: the proliferative capacity result with undifferentiated cells is “displays proliferative capacity in undifferentiated cells”. For “HSDPARRGELSVC-C-VSLEGRRAPDSH (disulfide) [d-bdnf]”, the neurite network result was “able to elicit a neurite network similar to that raised by nM concentrations of BDNF” in the experiment on SH-SY5Y cells (1 and 5 μM, compared with BDNF 150 ng/mL); “not able to produce the same effect” in the experiment with SH-SY5Y cells (higher doses (10 μM)).
